In patent publication US20150272939A1, “Identification of Small Molecule Inhibitors of Jumonji AT-Rich Interactive Domain 1A (JARID1A) and 1B (JARID1B) Histone Demethylase” (Yale University, priority 2012, published 2015):
Counter-ions that a name gives are not always drawn. Like-named read-outs stand apart in the source and are kept apart here.

Tests used:
JARID1B = target: T1, JARID1B (Homo sapiens, UniProt Q9UGL1); test: FLAG-JARID1B histone demethylase assay with AlphaScreen detection (HTS and dose response); type: biochemical; details: for inhibition at 20 µM: read-out: Inhibitory effect (percent); for Validation result of HTS active: effect of the compound in the JARID1B AlphaScreen demethylase assay / Assay Signal (percent): validation of HTS actives; for Validation result of HTS active: effect of the compound in the JARID1B AlphaScreen demethylase assay: total signal before subtraction of artifact signal; for Assay − Artifact Signal (percent): assay signal minus artifact signal; for Assay Signal (percent): effect of compound in JARID1B AlphaScreen assay;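 on Assay Signal (percent): compound tested at 20 µM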;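 on Assay − Artifact Signal (percent): compound tested at 20 µM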;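 on all read-outs here: FLAG-tagged JARID1B at 4 nM acting on a biotinylated H3K4me3 peptide, demethylation read by AlphaScreen luminescence, with hits checked against bio-H3K4me2 without enzyme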
T1 construct: The FLAG tagged full length JARID1B enzyme was expressed in Sf21 insect cells using FLAG-JARID1B baculoviruses; FLAG (N); made in house; host or cells: Sf21 insect cells (baculovirus)
T1 sequence (Q9UGL1 whole entry): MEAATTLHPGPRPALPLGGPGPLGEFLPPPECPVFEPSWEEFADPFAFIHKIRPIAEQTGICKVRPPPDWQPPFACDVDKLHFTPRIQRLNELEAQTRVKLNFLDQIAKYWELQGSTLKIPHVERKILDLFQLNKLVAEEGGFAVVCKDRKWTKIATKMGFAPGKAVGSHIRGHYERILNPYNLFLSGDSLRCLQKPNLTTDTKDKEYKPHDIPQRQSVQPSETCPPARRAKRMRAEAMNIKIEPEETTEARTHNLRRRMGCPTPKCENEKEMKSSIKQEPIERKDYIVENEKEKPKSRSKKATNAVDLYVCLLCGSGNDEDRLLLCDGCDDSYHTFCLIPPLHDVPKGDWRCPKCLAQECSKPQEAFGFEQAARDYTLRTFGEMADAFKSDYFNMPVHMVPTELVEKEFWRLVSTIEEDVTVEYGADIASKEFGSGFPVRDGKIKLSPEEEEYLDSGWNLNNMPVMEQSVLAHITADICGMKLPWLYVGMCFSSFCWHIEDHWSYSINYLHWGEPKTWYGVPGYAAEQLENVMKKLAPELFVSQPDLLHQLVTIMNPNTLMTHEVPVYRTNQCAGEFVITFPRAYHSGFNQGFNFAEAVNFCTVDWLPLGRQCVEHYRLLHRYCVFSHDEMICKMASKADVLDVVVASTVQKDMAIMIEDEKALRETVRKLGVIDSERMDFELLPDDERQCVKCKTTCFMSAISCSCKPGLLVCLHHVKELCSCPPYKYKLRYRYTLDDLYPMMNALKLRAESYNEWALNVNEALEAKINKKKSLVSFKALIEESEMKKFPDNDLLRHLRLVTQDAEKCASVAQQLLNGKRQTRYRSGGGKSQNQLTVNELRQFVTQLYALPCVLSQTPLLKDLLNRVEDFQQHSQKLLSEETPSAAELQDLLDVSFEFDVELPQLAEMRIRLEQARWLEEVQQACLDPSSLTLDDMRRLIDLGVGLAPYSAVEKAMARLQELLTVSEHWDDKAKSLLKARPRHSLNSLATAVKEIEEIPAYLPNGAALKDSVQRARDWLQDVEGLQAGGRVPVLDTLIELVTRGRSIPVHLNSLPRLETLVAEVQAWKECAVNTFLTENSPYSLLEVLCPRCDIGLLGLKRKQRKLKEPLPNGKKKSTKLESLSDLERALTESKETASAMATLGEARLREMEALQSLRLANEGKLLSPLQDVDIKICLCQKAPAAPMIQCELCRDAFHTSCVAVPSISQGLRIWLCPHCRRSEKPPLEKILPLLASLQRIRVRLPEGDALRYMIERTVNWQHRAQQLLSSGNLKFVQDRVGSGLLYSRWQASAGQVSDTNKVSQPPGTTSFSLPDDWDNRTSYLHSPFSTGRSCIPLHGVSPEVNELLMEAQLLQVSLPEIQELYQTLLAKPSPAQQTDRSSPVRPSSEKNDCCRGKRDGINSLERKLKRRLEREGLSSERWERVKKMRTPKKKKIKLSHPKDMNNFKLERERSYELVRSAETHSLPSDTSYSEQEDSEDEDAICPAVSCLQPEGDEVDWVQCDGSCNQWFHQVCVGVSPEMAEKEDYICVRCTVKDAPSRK

[1] = AlphaScreen counterscreen against bio-H3K4me2 peptide in the absence of enzyme (artifact signal); details: for Artifact signal: effect of the compound when it is incubated with bio-H3K4me2 peptide: counterscreen, no enzyme; for Artifact Signal (percent): effect of the compound when incubated with bio-H3K4me2 peptide (counterscreen, no enzyme);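 on all read-outs here: counterscreen run without enzyme against bio-H3K4me2 peptide to remove false positive hits from the JARID1 demethylase AlphaScreen screen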
[2] = high-throughput screen, compound 20 μM, standard demethylase conditions (10 μM α-KG, 50 μM Fe (II))
[3] = high-throughput screen, compound 20 μM, IDs marked *: additional hits under reaction condition with 1 mM α-KG

Molecule	inhibition at 20 µM (JARID1B; [2]) [%]	Validation result of HTS active: effect of the compound in the JARID1B AlphaScreen demethylase assay (JARID1B)	Artifact signal: effect of the compound when it is incubated with bio-H3K4me2 peptide [1]	Assay − Artifact Signal (percent) (JARID1B) [%]	Assay Signal (percent) (JARID1B) [%]	Artifact Signal (percent) [1] [%]	inhibition at 20 µM (JARID1B; [3]) [%]	Inhibitory effect (percent) (JARID1B; [2]) [%]
O=C(Nc1ccc(N2CCCC2)c(C(=O)O)c1)c1ccc(Br)cc1 [YU208200]	53	24.86	20.10	–	–	–	–	–
Cn1c(S)nnc1CSCc1ccc(F)cc1 [YU147498]	31.1	–	–	23.24	19.36	−3.87	–	–
CC(=O)Nc1ccc(N(C)CCCc2c(C)nn(C)c2C)c(C(=O)O)c1 [YU208230]	38.5	24.45	17.72	–	–	–	–	–
CN(C)CCCN1c2ccccc2Sc2ccc(C(F)(F)F)cc21 [YU034370, TRIFLUPROMAZINE HYDROCHLORIDE, reference compound]	66	4.23	−2.95	–	–	–	–	–
CC(=O)Nc1ccccc1NC(=O)c1ccc2c(c1)OCO2 [YU149951]	84.7	–	–	8.46	6.61	−1.85	–	–
CN(C)C(=S)SSC(=S)N(C)C [YU034426, THIRAM, reference compound]	64.2	–	–	59.23	66.73	7.49	–	–
CN1C(=O)c2ccc(NC(=O)c3ccc4c(c3)OCO4)cc2C1=O [YU152920]	96.7	0.53	−2.69	–	–	–	–	–
Cc1c(C(=O)O)cccc1-c1ccc(C=C[N+](=O)[O-])o1 (single isomer, unassigned) [YU147801]	56.9	–	–	14.43	31.41	16.98	–	–
COc1ccc(Cl)cc1NC(=S)Nn1cnnc1 [YU148611]	34.6	–	–	17.82	15.61	−2.20	–	–
c1ccc(CCc2nn3c(-c4ccncc4)nnc3s2)cc1 [YU150981]	71.2	–	–	48.70	52.35	3.65	–	–
OC1CCN(C(=S)NC2CC2)CC1 [YU144896]	90.6	−9.38	−14.49	–	–	–	–	–
Cn1c(SCC=Cc2ccccc2)nnc1-c1cnccn1 (single isomer, unassigned) [YU151184]	33.8	1.02	−5.59	–	–	–	–	–
S=c1[nH]cnc2nc[nH]c12 [YU033892, MERCAPTOPURINE, reference compound]	–	–	–	35.94	33.79	−2.15	56	–
CCCN1CCN(C(=O)c2ccncc2)CC1 [YU145702]	35.9	–	–	45.86	44.33	−1.53	–	–
O=C(Nc1cnc(N2CCN(c3ccccc3Cl)CC2)c(C(=O)O)c1)c1ccc(F)cc1 [YU208247]	51.5	7.92	0.47	–	–	–	–	–
CN1CCc2cccc3c2C1Cc1ccc(O)c(O)c1-3 (stereo not shown) [YU033696, APOMORPHINE HYDROCHLORIDE, reference compound]	89.4	–	–	58.49	66.78	8.29	–	–
O=C(O[C@@H]1Cc2c(O)cc(O)cc2O[C@@H]1c1cc(O)c(O)c(O)c1-c1c([C@H]2Oc3cc(O)cc(O)c3C[C@H]2OC(=O)c2cc(O)c(O)c(O)c2)cc(O)c(O)c1O)c1cc(O)c(O)c(O)c1 (stereo in doubt) [YU155084, 2,2-BISEPIGALLO- CATECHIN DIGALLATE, reference compound]	102	98.89	91.60	–	–	–	–	–
O=C(O)c1cc(O)c(=O)c2c(O)c(O)c(O)cc2c1 [YU155193, PURPUROGALLIN-4- CARBOXYLIC ACID, reference compound]	97.5	−1.37	−3.21	–	–	–	–	–
Fc1cccc(Cl)c1CNn1cnnc1S [YU146768]	34	–	–	49.49	48.97	−0.52	–	–
O=C(O)c1cc(NCc2cc(O)ccc2O)ccc1O [YU154859, 2-HYDROXY-5-(2,5- DIHYDROXYBENZYL- AMINO)BENZOIC ACID, reference compound]	46.4	–	–	42.61	46.26	3.65	–	–
CARMINIC ACID [YU155214, reference compound]	–	–	–	54.26	78.58	24.32	–	65.23
Oc1c(Cl)cc(Cl)cc1Sc1cc(Cl)cc(Cl)c1O [YU033712, BITHIONOL, reference compound]	–	0.82	−3.70	–	–	–	47.6	–
NC(=O)c1ncn([C@@H]2O[C@H](CO)[C@@H](O)[C@H]2O)n1 [YU034518, RIBAVIRIN, reference compound]	79.7	–	–	23.17	17.20	−5.97	–	–
O=C1C=CC(=O)[C@@H](Br)[C@@H]1Br [YU221139]	58.7	–	–	23.33	30.40	7.07	–	–
COc1cc(C(=S)N2CC(C)OC(C)C2)cc(OC)c1O (stereo not shown) [YU151441]	30.8	–	–	16.81	12.98	−3.82	–	–
Cn1c(=O)n(C)c2cc(S(=O)(=O)NNc3ccccc3)ccc21 [YU153899]	–	8.44	0.54	–	–	–	–	–
Nc1nc2nc[nH]c2c(=S)[nH]1 [YU034024, THIOGUANINE, reference compound]	–	–	–	36.52	36.89	0.37	52.2	–
Oc1cc(O)c2c(c1)O[C@H](c1ccc(O)c(O)c1)[C@@H](O)C2 [YU033631, CIANIDANOL, reference compound]	–	–	–	26.12	30.96	4.84	41.5	–
